Assay results reported in article PMC12670405, “Second-Generation AURKA-Targeting PROTACs: Structural Optimization toward in Vivo Degradation in Neuroblastoma” (Journal of Medicinal Chemistry, 2025).

Legend:
[1] = target: T1, AURKA (Homo sapiens, UniProt O14965); test: AURKA protein levels, Western blot in SH-SY5Y with ABCB1 knockdown; format: cell-based; design: endogenous in cells; conditions: 1 μM, 24h
T1 sequence (O14965 1-403): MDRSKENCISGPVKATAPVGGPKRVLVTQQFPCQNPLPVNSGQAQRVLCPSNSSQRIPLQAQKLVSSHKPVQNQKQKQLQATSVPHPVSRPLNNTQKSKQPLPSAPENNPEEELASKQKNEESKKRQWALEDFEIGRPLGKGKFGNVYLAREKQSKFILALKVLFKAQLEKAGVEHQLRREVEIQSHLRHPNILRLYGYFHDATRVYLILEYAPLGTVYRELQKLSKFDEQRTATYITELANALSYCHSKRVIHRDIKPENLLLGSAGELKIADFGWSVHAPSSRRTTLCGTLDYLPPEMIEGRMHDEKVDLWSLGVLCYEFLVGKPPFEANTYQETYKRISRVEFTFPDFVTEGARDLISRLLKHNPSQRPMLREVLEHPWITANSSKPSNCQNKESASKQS

[2] = tested on: ZNF7; test: LC-MS/MS proteome profiling; format: cell-based, Homo sapiens; conditions: SK5527 vs DMSO (24h)
Description: (§1) Analysis of the mass spectrometry data was performed in DiaNN (version 1.9). Precursor false discovery rate was set at 1%. Spectra were searched against the Homo sapiens protein sequences in the Uniprot database (database release version of 2024_01), containing 20,597 sequences (www.uniprot.org) and the imbedded protein contaminant list. Enzyme specificity was set as C-terminal to arginine and lysine, also allowing cleavage at proline bonds with a maximum of 2 missed cleavages. Variable modifications were set to oxidation of methionine residues and acetylation of protein N-termini while fixed modification was set to carbamidomethylation of cystein residues. Matching between runs was enabled. Mainly default settings were used, except for the addition of a 400-900 m/z precursor mass range filter and MS1 and MS2 mass tolerance was set to 10 and 20 ppm respectively.
(§2) Further data analysis of the results was performed with an in-house script in the R programming language.
(§3) Protein expression matrices were prepared as follows: the DIA-NN main report output table was filtered at a precursor and protein library q-value cut-off of 1 % and only proteins identified by at least one proteotypic peptide were retained. After pivoting into a wide format, iBAQ intensity columns were then added to the matrix using the DIAgui’s R package get_IBAQ function. PG MaxLFQ intensities were log2 transformed and replicate samples were grouped. Proteins with less than 3 valid values in at least one group were removed and missing values were imputed from a normal distribution centered around the detection limit (package DEP) leading to a list of 7,759 quantified proteins in the experiment, used for further data analysis. To compare protein abundance […]
(§4) 24h MK-5108 vs 24h DMSO sample groups), statistical testing for differences between two group means was performed, using the package limma. Statistical significance for differential regulation was set to a false discovery rate (FDR) of < 0.05 and |log2FC| = 2.

[3] = tested on: SIPA1L3; test: LC-MS/MS proteome profiling; format: cell-based, Homo sapiens; conditions: SK5527 vs DMSO (24h)
Description: as §1, §2, §3, §4

Row | Structure (SMILES) | AURKA degradation, ABCB1 knockdown compared to wild-type (in words) [1] | logFC ZNF7 [2] | logFC SIPA1L3 [3]
1 | O=C1CCC(N2C(=O)c3cccc(OCCOCCOCCOCCNC(=O)[C@]4(Cc5cccc(Nc6nccs6)n5)CC[C@@H](Oc5cccc(Cl)c5F)CC4)c3C2=O)C(=O)N1 (stereo partly drawn) [SK2188, reference compound] | stronger AURKA degradation | – | –
2 | Cc1cc(Nc2ccc(F)c(CC3(C(=O)N4CCC(F)(CN5CCN(c6ccc(N7CCC(=O)NC7=O)cn6)CC5)CC4)CCN(Cc4cccc(Cl)c4F)CC3)n2)n[nH]1 [SK5527] | – | -2.38 | -3.26
